Measurements published in patent US10538516B2, “Oxadiazole derivative and pharmaceutical containing same” (National Center for Geriatrics and Gerontology, priority 2015, dated 2020).
Like-named read-outs stand apart in the source and are kept apart here.

Molecular target: T1, GAβ-dependent amyloid fibril formation (Human Aβ1-40 + GM1-containing liposome) (Homo sapiens, UniProt P05067)
T1 construct: Human Aβ1-40 (cat. #4307-v, prepared by Peptide Institute); purchased Peptide Institute 4307-v
Assay: Thioflavin T (ThT) assay of GAβ-dependent amyloid fibril formation (Aβ1-40 with GM1-containing liposome)
Format: biochemical
Procedure, shortened: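 Human Aβ1-40 (75 μM stock) pre-incubated 10 min at room temperature with compound (75 or 15 μM solution), then GM1-containing cholesterol/sphingomyelin liposome added and incubated 37° C, 18 hours. Fibrils quantified by ThT fluorescence (ex 430/em 490 nm, pH 8.5 glycine buffer); inhibition as ratio to compound-free control.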

[1] = inhibition rate against amyloid fibril formation, final concentration of the compound 25 μM, read-out: Inhibitory activity ABC evaluation
[2] = read-out: ThT Inhibitory activity (% inhibition)
[3] = @25 μM, read-out: ThT Inhibitory activity (% inhibition)

T1 sequence (P05067 672-711 limits assumed): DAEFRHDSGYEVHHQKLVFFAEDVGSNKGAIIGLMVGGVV

inhibition at 25 µM [1] [%] | SMILES | further results
> 80 | O=C(N[C@@H](CO)c1nc(-c2ccc(C(F)(F)F)cc2)no1)c1ccc(Cl)cc1 [Compound 129, (S)-4-chloro-N-(2-hydroxy-1-(3-(4-(tri-fluoromethyl)phenyl)-1,2,4-oxadiazol-5-yl)ethyl)benzamide] | inhibition at 5 µM [2]: 68%; inhibition at 25 µM [3]: 86%; inhibition at 25 µM (final concentration of the compound 25 μM, ratio of ThT fluorescence intensity with/without compound, 37° C. for 18 hours, read-out: inhibition rate against amyloid fibril formation (inhibitory activity on a scale of A to C)): > 80%
> 80 | O=C(N[C@@H](CO)c1nc(-c2ccc(OC(F)(F)F)cc2)no1)c1cccc(F)c1 [Compound 94, (S)-3-fluoro-N-(2-hydroxy-1-[3-{4-(trifluoromethoxy)phenyl}-1,2,4-oxadiazol-5-yl]ethyl)benzamide] | –
> 80 | O=C(N[C@@H](CO)c1nc(-c2ccc(C(F)F)cc2)no1)c1ccc(Cl)cc1 [Compound 167] | inhibition at 25 µM [3]: 98%
40 to 80 | O=C(N[C@@H](CO)c1nc(-c2ccc3c(C(=O)C(F)(F)F)c[nH]c3c2)no1)c1ccc(F)cc1 [Compound 256, 4-fluoro-N-[(1S)-2-hydroxy-1-{3-[3-(2,2,2-trifluoroacetyl)-1H-indol-6-yl]-1,2,4-oxadiazol-5-yl}ethyl] benzamide] | –
> 80 | O=C(N[C@@H](CO)c1nc(-c2ccc(C(F)F)cc2)no1)c1ccccc1 [Compound 168, N-[(1S)-1-{3-[4-(difluoromethyl)phenyl]-1,2,4-oxadiazol-5-yl}-2-hydroxyethyl] benzamide] | –
> 80 | O=C(N[C@@H](CO)c1nc(-c2ccc3[nH]ccc3c2)no1)c1ccc(F)cc1 [Compound 175, 4-fluoro-N-[(1S)-2-hydroxy-1-[3-(1H-indol-5-yl)-1,2,4-oxadiazol-5-yl]ethyl] benzamide] | –
< 40 | O=C(N[C@@H](CO)c1nc(-c2ccc(C(F)(F)F)cc2)no1)c1cn2ccccc2n1 [Compound 240, N-[(1S)-2-hydroxy-1-{3-[4-(trifluoromethyl)phenyl]-1,2,4-oxadiazol-5-yl}ethyl]imidazo[1,2-a]pyridine-2-carboxamide] | –
> 80 | O=C(N[C@@H](CO)c1nc(-c2ccc(C(F)(F)F)cc2)no1)C1CNc2ccccc2O1 (stereo partly drawn) [Compound 192, N-[(1S)-2-hydroxy-1-{3-[4-(trifluoromethyl)phenyl]-1,2,4-oxadiazol-5-yl}ethyl]-3,4-dihydro-2H-1,4-benzoxazine-2-carboxamide] | –
> 80 | O=C(N[C@@H](CO)c1nc(-c2ccc(C(F)(F)F)cc2)no1)c1ccc(Oc2ccccc2)cc1 [Compound 201, N-[(1S)-2-hydroxy-1-{3-[4-(trifluoromethyl)phenyl]-1,2,4-oxadiazol-5-yl}ethyl]-4-phenoxybenzamide] | –
> 80 | CN(C)c1ccc(C(=O)N[C@@H](CO)c2nc(-c3ccc(C(F)(F)F)cc3)no2)cc1 [Compound 209, 4-(dimethylamino)-N-[(1S)-2-hydroxy-1-{3-[4-(trifluoromethyl)phenyl]-1,2,4-oxadiazol-5-yl}ethyl]benzamide] | –
40 to 80 | CC(C)c1ccc(-c2noc([C@H](CO)NC(=O)c3ccccc3)n2)cc1 [Compound 145, N-[(1S)-2-hydroxy-1-{3-[4-(propan-2-yl)phenyl]-1,2,4-oxadiazol-5-yl}ethyl]benzamide] | –
40 to 80 | O=C(/C=C/c1ccc(F)cc1)N[C@@H](CO)c1nc(-c2ccc(C(F)(F)F)cc2)no1 [Compound 208, (2E)-3-(4-fluorophenyl)-N-[(1S)-2-hydroxy-1-{3-[4-(trifluoromethyl)phenyl]-1,2,4-oxadiazol-5-yl}ethyl]prop-2-enamide] | –
40 to 80 | O=C(N[C@@H](CCO)c1nc(-c2ccc(OC(F)(F)F)cc2)no1)c1ccc(Cl)cc1 [Compound 75, (S)-4-chloro-N-(3-hydroxy-1-[3-{4-(trifluoro-methoxy)phenyl}-1,2,4-oxadiazol-5-yl]propyl) benzamide] | –
40 to 80 | O=C(N[C@@H](CO)c1nc(-c2ccc(C(F)(F)F)c(F)c2)no1)c1ccc(F)cc1 [Compound 217, 4-fluoro-N-[(1S)-1-{3-[3-fluoro-4-(trifluoromethyl)phenyl]-1,2,4-oxadiazol-5-yl}-2-hydroxyethyl] benzamide] | –
> 80 | O=C(N[C@@H](CO)c1nc(-c2ccc(OC(F)(F)F)cc2)no1)c1cccc(Cl)c1 [Compound 63, (S)-3-chloro-N-(2-hydroxy-1-[3-{4-(trifluoro-methoxy)phenyl}-1,2,4-oxadiazol-5-yl]ethyl) benzamide] | inhibition at 5 µM [2]: 53%; inhibition at 25 µM [3]: 99%
40 to 80 | O=C(/C=C/c1cc(Cl)cc(Cl)c1)NC(CO)c1nc(-c2ccc(C(F)(F)F)cc2)no1 (centres unmarked) [Compound 191, (2E)-3-(3,5-dichlorophenyl)-N-(2-hydroxy-1-{3-[4-(trifluoromethyl)phenyl]-1,2,4-oxadiazol-5-yl}ethyl)prop-2-enamide] | inhibition at 25 µM [3]: 73%

Continued, compound first:

SMILES | inhibition at 25 µM [1] [%] | further results
O=C(N[C@@H](CO)c1nc(-c2ccc3cc[nH]c3c2)no1)c1ccc(F)cc1 [Compound 250, 4-fluoro-N-[(1S)-2-hydroxy-1-[3-(1H-indol-6-yl)-1,2,4-oxadiazol-5-yl]ethyl]benzamide] | 40 to 80 | –
CS(=O)(=O)Nc1ccc(-c2noc(C3CC(=O)N(c4ccc(Cl)cc4)C3)n2)cc1 (centres unmarked) [Compound 65, N-(4-[5-{1-(4-chlorophenyl)-5-oxopyrrolidin-3-yl}-1,2,4-oxadiazol-3-yl]phenyl) methane-sulfonamide] | 40 to 80 | –
O=C(N[C@@H](CO)c1nc(-c2c[nH]c3ncccc23)no1)c1ccc(F)cc1 [Compound 229, 4-fluoro-N-[(1S)-2-hydroxy-1-(3-{1H-pyrrolo[2,3-b]pyridin-3-yl}-1,2,4-oxadiazol-5-yl)ethyl]benzamide] | 40 to 80 | inhibition at 25 µM [3]: 71%
CCCN(C(=O)CCc1nc(-c2ccc(OC)cc2)no1)c1cncc(Cl)c1 [Compound 5, N-(5-chloropyridin-3-yl)-3-{3-(4-methoxyphenyl)-1,2,4-oxadiazol-5-yl}-N-propylpropanamide] | 40 to 80 | –
O=C(N[C@@H](CO)c1nc(-c2cc3ccccc3s2)no1)c1ccc(F)cc1 [Compound 232, N-[(1S)-1-[3-(1-benzothiophen-2-yl)-1,2,4-oxadiazol-5-yl]-2-hydroxyethyl]-4-fluorobenzamide] | > 80 | –
O=C1CC(c2ncc(-c3ccc(OC(F)(F)F)cc3)[nH]2)CN1c1ccc(Cl)cc1 (centres unmarked) [Compound 124, 1-(4-chlorophenyl)-4-{5-[4-(trifluoromethoxy)phenyl]-1H-imidazol-2-yl}pyrrolidin-2-one] | < 40 | –
O=C1CC(c2nc(-c3cccc(OC(F)F)c3)no2)CN1c1ccc(Cl)cc1 (centres unmarked) [Compound 66, 1-(4-chlorophenyl)-4-[3-{3-(difluoro-methoxy)phenyl}-1,2,4-oxadiazol-5-yl]pyrrolidin-2-one] | 40 to 80 | –
O=C(N[C@@H](CO)c1nc(-c2ccc(OC(F)(F)F)cc2)no1)c1c[nH]c2cc(Cl)ccc12 [Compound 76, (S)-6-chloro-N-(2-hydroxy-1-[3-{4-(trifluoro-methoxy)phenyl}-1,2,4-oxadiazol-5-yl}ethyl)-1H-indole-3-carboxamide] | 40 to 80 | –
O=C(N[C@@H](CO)c1nc(-c2ccc(Cl)[nH]2)no1)c1ccc(F)cc1 [Compound 251, N-[(1S)-1-[3-(5-chloro-1H-pyrrol-2-yl)-1,2,4-oxadiazol-5-yl]-2-hydroxyethyl]-4-fluorobenzamide] | 40 to 80 | –
O=C(NC(CNCCO)c1nnc(-c2ccc(OC(F)(F)F)cc2)o1)c1ccc(Cl)cc1 (centres unmarked) [Compound 119, 4-chloro-N-(2-((2-hydroxyethyl)amino)-1-(5-(4-(trifluoro-methoxy)phenyl)-1,3,4-oxadiazol-2-yl)ethyl) benzamide] | 40 to 80 | –
Cn1cc(-c2noc([C@H](CO)NC(=O)c3ccc(F)cc3)n2)c2ccccc21 [Compound 245, 4-fluoro-N-[(1S)-2-hydroxy-1-[3-(1-methyl-1H-3-yl)-1,2,4-oxadiazol-5-yl]ethyl]benzamide] | 40 to 80 | –
O=C(N[C@@H](CO)c1nc(-c2c[nH]c3ccc(Cl)cc23)no1)c1ccc(Cl)cn1 [Compound 254, 5-chloro-N-[(1S)-1-[3-(5-chloro-1H-indol-3-yl)-1,2,4-oxadiazol-5-yl]-2-hydroxyethyl] pyridine-2-carboxamide] | 40 to 80 | –
NC(Cc1c[nH]cn1)c1nc(-c2ccc(OC(F)(F)F)cc2)no1 (centres unmarked) [Compound 37, 2-(1H-imidazol-4-yl)-1-[3-{4-(trifluoromethoxy)phenyl}-1,2,4-oxadiazol-5-yl]ethan-1-amine] | < 40 | –
COc1ccc(-c2noc(C(C)(C)N(C)C(=O)c3ccc(Cl)cc3)n2)cc1 [Compound 22, 4-chloro-N-[2-{3-(4-methoxyphenyl)-1,2,4-oxadiazol-5-yl}propan-2-yl]-N-methyl-benzamide] | < 40 | –
O=C1CC(c2nc(-c3ccncc3)no2)CN1c1ccc(Cl)cc1 (centres unmarked) [Compound 44, 1-(4-chlorophenyl)-4-{3-(pyridin-4-yl)-1,2,4-oxadiazol-5-yl} pyrrolidin-2-one] | < 40 | –
CS(=O)(=O)Nc1ccc(-c2nnc([C@H](CO)NC(=O)c3ccc(Cl)cc3)o2)cc1 [Compound 105, (S)-4-chloro-N-(2-hydroxy-1-(5-(4-(methyl-sulfonamido)phenyl)-1,3,4-oxadiazol-2-yl)ethyl)benzamide] | < 40 | –
O=C(c1ccc(Cl)cc1)N1CCC[C@H]1c1nc(-c2ccc(OC(F)(F)F)cc2)no1 [Compound 55, (S)-(4-chlorophenyl) (2-[3-{4-(trifluoro-methoxy)phenyl)-1,2,4-oxadiazol-5-yl}pyrrolidin-1-yl)methanone] | 40 to 80 | –
